Consider one molecule from PubChem BioAssay (NCI).

Structures are written as SMILES.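 Five compound concentrations were applied to cells in 96-well plates for 48 hours; endpoints were derived by simple linear interpolation of the resulting dose-response curve. Definition used: TGI = concentration required for complete inhibition of growth.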 Some results are limits rather than exact numbers.

Some test systems named below: DLD-1 colon; DMS 114 small cell lung; DMS 273 small cell lung; HCT-15 colon; HL-60(TB) leukemia; HOP-18 NSCLC; K-562 leukemia; KM12 colon; KM20L2 colon; LXFL 529 NSCLC; M19-MEL melanoma; MDA-MB-435; RXF 393 renal; SF-268 CNS; SNB-75 CNS; SNB-78 CNS; SW-620 colon; XF 498 CNS.
Test in all cases: NCI anticancer screen, dose series, 48 h

Consider `CN(C)C(=S)/N=c1\ssc(=S)n1Cc1cccnc1`, for which the TGI in the experiment on DLD-1 colon was more than 100 µM; in the experiment with DMS 114 small cell lung, 3.89 µM; in the experiment on DMS 273 small cell lung, more than 100 µM; with HCT-15 colon it was more than 75 µM; in the experiment on HL-60(TB) leukemia, more than 57.8 µM; in the experiment on HOP-18 NSCLC, more than 100 µM. Besides, the TGI in the experiment with K-562 leukemia is more than 100 µM; with KM12 colon, 36.2 µM; in the experiment with KM20L2 colon, 4.27 µM; in the experiment on LXFL 529 NSCLC, more than 100 µM; with M19-MEL melanoma, more than 46.6 µM; with MDA-MB-435, 1.57 µM. In addition, the TGI in the experiment with RXF 393 renal was 17.8 µM; with SF-268 CNS it was more than 100 µM; with SNB-75 CNS, 20.6 µM; with SNB-78 CNS it was more than 100 µM; with SW-620 colon, more than 53.2 µM; in the experiment with XF 498 CNS it was 47.1 µM.
